{"source": "patent US20220304970A1", "about": "“LIPOSOMIAL EYE DROPS SOLUTION AND USES THEREOF FOR THE TREATMENT OF DRY EYE SYNDROME” (Dr. Rolf Lambert Pharma-Consulting GmbH, priority 2018, published 2022)", "assay": "Stability to steam sterilization", "details": "121° C. at 1·10^5 Pa (1 atm) for 15 minutes", "data": [{"smiles": "CCCCCCCCCCCCCCCC(=O)OC/C=C(C)/C=C/C=C(C)/C=C/C1=C(C)CCCC1(C)C", "note": "[Vitamin A Palmitate, Retinyl Palmitate]", "values": [{"measurement": "stability to sterilization", "value": "not stable"}]}]}
